Key:
[1] = test system: SNB-75; assay: NCI-60 SRB growth inhibition, one-dose and five-dose; assay type: cell-based; conditions: Homo sapiens
[2] = test system: MALME-3M; assay: as above; assay type: cell-based; conditions: Homo sapiens
[3] = test system: M14; assay: as above; assay type: cell-based; conditions: Homo sapiens
[4] = test system: HL-60(TB); assay: cells; assay type: cell-based; conditions: Homo sapiens
[5] = test system: CAKI-1; assay: NCI-60 SRB growth inhibition, one-dose and five-dose; assay type: cell-based; conditions: Homo sapiens
[6] = test system: OVCAR-8; assay: as above; assay type: cell-based; conditions: Homo sapiens
[7] = test system: A549/ATCC; assay: as above; assay type: cell-based; conditions: Homo sapiens
[8] = test system: OVCAR-3; assay: as above; assay type: cell-based; conditions: Homo sapiens
[9] = test system: NCI-H226; assay: as above; assay type: cell-based; conditions: Homo sapiens
[10] = test system: MDA-MB-435; assay: as above; assay type: cell-based; conditions: Homo sapiens
[11] = test system: RPMI-8226; assay: as above; assay type: cell-based; conditions: Homo sapiens
[12] = test system: SNB-19; assay: as above; assay type: cell-based; conditions: Homo sapiens
[13] = test system: KM12; assay: as above; assay type: cell-based; conditions: Homo sapiens
[14] = test system: UACC-62; assay: as above; assay type: cell-based; conditions: Homo sapiens
[15] = test system: MDA-MB-468; assay: as above; assay type: cell-based; conditions: Homo sapiens
[16] = test system: HOP-92; assay: as above; assay type: cell-based; conditions: Homo sapiens
[17] = test system: OVCAR-5; assay: as above; assay type: cell-based; conditions: Homo sapiens
[18] = test system: IGROV1; assay: as above; assay type: cell-based; conditions: Homo sapiens
[19] = test system: HT29; assay: as above; assay type: cell-based; conditions: Homo sapiens
[20] = test system: T-47D; assay: as above; assay type: cell-based; conditions: Homo sapiens, T47D
[21] = test system: CCRF-CEM; assay: as above; assay type: cell-based; conditions: Homo sapiens
[22] = test system: A498; assay: as above; assay type: cell-based; conditions: Homo sapiens
[23] = test system: ACHN; assay: as above; assay type: cell-based; conditions: Homo sapiens
[24] = test system: HCT-15; assay: as above; assay type: cell-based; conditions: Homo sapiens
[25] = test system: COLO 205; assay: as above; assay type: cell-based; conditions: Homo sapiens
[26] = test system: SW-620; assay: as above; assay type: cell-based; conditions: Homo sapiens
[27] = test system: TK-10; assay: as above; assay type: cell-based; conditions: Homo sapiens
[28] = test system: SF-268; assay: as above; assay type: cell-based; conditions: Homo sapiens
[29] = test system: NCI 60-cell line panel (full panel); assay: NCI-60 SRB growth inhibition, full panel mean / MG-MID; assay type: cell-based, human
[30] = test system: MCF7; assay: NCI-60 SRB growth inhibition, one-dose and five-dose; assay type: cell-based; conditions: Homo sapiens
[31] = test system: 786-0; assay: as above; assay type: cell-based; conditions: Homo sapiens
[32] = test system: U251; assay: as above; assay type: cell-based; conditions: Homo sapiens
[33] = test system: HS 578 T; assay: as above; assay type: cell-based; conditions: Homo sapiens
[34] = test system: NCI-H460; assay: as above; assay type: cell-based; conditions: Homo sapiens
[35] = test system: SK-MEL-5; assay: as above; assay type: cell-based; conditions: Homo sapiens
[36] = test system: OVCAR-4; assay: as above; assay type: cell-based; conditions: Homo sapiens
[37] = test system: SN12C; assay: as above; assay type: cell-based; conditions: Homo sapiens, read-out: percent growth inhibition
[38] = test system: NCI/ADR-RES; assay: as above; assay type: cell-based; conditions: Homo sapiens
[39] = test system: HCT-116; assay: as above; assay type: cell-based; conditions: Homo sapiens
[40] = test system: BT-549; assay: as above; assay type: cell-based; conditions: Homo sapiens
[41] = test system: SR; assay: as above; assay type: cell-based; conditions: Homo sapiens
[42] = test system: DU-145; assay: as above; assay type: cell-based; conditions: Homo sapiens
[43] = read-out: percent growth inhibition

Compound: CC(=O)Nc1ccc(/C=C/C(=O)c2cccc(NCc3ccc(CO)cc3)c2)cc1 [Compound 5j, (E)-N-(4–(3-(3-((4-(hydroxymethyl)benzyl)amino)phenyl)-3-oxoprop-1-en-1-yl)phenyl) acetamide]
- GI50 ([1]; SNB-75): 11.9 µM
- inhibition at 10 µM ([1]; SNB-75, read-out: percent growth inhibition): 18.2%
- GI50 [2]: 11 µM
- inhibition at 10 µM [2, 43]: 141%
- GI50 ([3]; M14): 14.3 µM
- inhibition at 10 µM ([3]; M14, read-out: percent growth inhibition): 146%
- GI50 ([4]; HL-60): 11.6 µM
- inhibition at 10 µM ([4]; HL-60, read-out: percent growth inhibition): 138%
- GI50 ([5]; CAKI-1): 14.8 µM
- inhibition at 10 µM ([5]; CAKI-1, read-out: percent growth inhibition): 134%
- GI50 ([6]; OVCAR-8): 14.8 µM
- inhibition at 10 µM ([6]; OVCAR-8, read-out: percent growth inhibition): 130%
- GI50 ([7]; A549): 17.2 µM
- inhibition at 10 µM ([7]; A549, read-out: percent growth inhibition): 34.3%
- GI50 ([8]; OVCAR-3): 4.63 µM
- inhibition at 10 µM ([8]; OVCAR-3, read-out: percent growth inhibition): 138%
- GI50 ([9]; NCI-H226): 13.7 µM
- inhibition at 10 µM ([9]; NCI-H226, read-out: percent growth inhibition): 138%
- GI50 ([10]; MDA-MB-435): 13.8 µM
- inhibition at 10 µM ([10]; MDA-MB-435, read-out: percent growth inhibition): 79.8%
- GI50 ([11]; RPMI-8226): 2.84 µM
- inhibition at 10 µM ([11]; RPMI-8226, read-out: percent growth inhibition): 134%
- GI50 ([12]; SNB-19): 10.1 µM
- inhibition at 10 µM ([12]; SNB-19, read-out: percent growth inhibition): 114%
- GI50 ([13]; KM12): 3.93 µM
- inhibition at 10 µM ([13]; KM12, read-out: percent growth inhibition): 158%
- GI50 ([14]; UACC-62): 10.8 µM
- inhibition at 10 µM ([14]; UACC-62, read-out: percent growth inhibition): 156%
- GI50 ([15]; MDA-MB-468): 6.27 µM
- inhibition at 10 µM ([15]; MDA-MB-468, read-out: percent growth inhibition): 171%
- GI50 ([16]; HOP-92): 14.1 µM
- inhibition at 10 µM ([16]; HOP-92, read-out: percent growth inhibition): 34.6%
- GI50 ([17]; OVCAR-5): 12.6 µM
- inhibition at 10 µM ([17]; OVCAR-5, read-out: percent growth inhibition): 74%
- GI50 ([18]; IGROV-1): 6.71 µM
- inhibition at 10 µM ([18]; IGROV-1, read-out: percent growth inhibition): 119%
- GI50 ([19]; HT-29): 6.06 µM
- inhibition at 10 µM ([19]; HT-29, read-out: percent growth inhibition): 180%
- GI50 [20]: 13.5 µM
- inhibition at 10 µM [20, 43]: 70.2%
- GI50 [21]: 8.8 µM
- inhibition at 10 µM [21, 43]: 121%
- GI50 ([22]; A498): 15 µM
- inhibition at 10 µM ([22]; A498, read-out: percent growth inhibition): 3.83%
- GI50 [23]: 10.3 µM
- inhibition at 10 µM [23, 43]: 155%
- GI50 ([24]; HCT-15): 4.63 µM
- inhibition at 10 µM ([24]; HCT-15, read-out: percent growth inhibition): 140%
- GI50 ([25]; COLO 205): 16 µM
- inhibition at 10 µM ([25]; COLO 205, read-out: percent growth inhibition): 150%
- GI50 ([26]; SW-620): 4.27 µM
- inhibition at 10 µM ([26]; SW-620, read-out: percent growth inhibition): 157%
- GI50 ([27]; TK-10): 16.1 µM
- inhibition at 10 µM ([27]; TK-10, read-out: percent growth inhibition): 95.1%
- GI50 ([28]; SF-268): 15.4 µM
- inhibition at 10 µM ([28]; SF-268, read-out: percent growth inhibition): 88.8%
- GI50 ([29]; Homo sapiens, 60 cell, read-out: Full panel GI50 mean): 10.3 µM
- Full panel Mean GI % ([29]; mean over NCI-60 panel, single dose 10 µM): 120.44%
- GI50 ([30]; MCF7): 3.19 µM
- inhibition at 10 µM ([30]; MCF7, read-out: percent growth inhibition): 126%
- GI50 ([31]; 786-0): 14.1 µM
- inhibition at 10 µM ([31]; 786-0, read-out: percent growth inhibition): 186%
- GI50 ([32]; U-251): 3.6 µM
- inhibition at 10 µM ([32]; U-251, read-out: percent growth inhibition): 195%
- GI50 [33]: 18.9 µM
- inhibition at 10 µM [33, 43]: 57.9%
- GI50 ([34]; NCI-H460): 13.4 µM
- inhibition at 10 µM ([34]; NCI-H460, read-out: percent growth inhibition): 148%
- GI50 ([35]; SK-MEL-5): 10.2 µM
- inhibition at 10 µM ([35]; SK-MEL-5, read-out: percent growth inhibition): 183%
- GI50 ([36]; OVCAR-4): 14.8 µM
- inhibition at 10 µM ([36]; OVCAR-4, read-out: percent growth inhibition): 75.5%
- inhibition at 10 µM [37]: 149%
- GI50 [38]: 16.8 µM
- inhibition at 10 µM [38, 43]: 126%
- GI50 ([39]; HCT-116, HCT-116, five-dose screening): 3.35 µM
- inhibition at 10 µM ([39]; HCT-116, read-out: percent growth inhibition): 193%
- GI50 ([40]; BT-549): 12.1 µM
- inhibition at 10 µM ([40]; BT-549, read-out: percent growth inhibition): 119%
- GI50 [41]: 2.61 µM
- GI50 ([42]; DU-145): 5.03 µM
- inhibition at 10 µM ([42]; DU-145, read-out: percent growth inhibition): 84.8%

From publication PMC11003488 (Journal of Enzyme Inhibition and Medicinal Chemistry, 2023)
